Test results published in patent US20080093247A1, “PACKAGING MATERIALS FOR FORMULATIONS CONTAINING 2-PYRROLIDONE DERIVATIVES” (Alcon Manufacturing Ltd., priority 2006, published 2008).
“And” between values parts separate entries of the source, which are not always exact repeats. Equal entries are not always repeated.

Tests used:
[1] = Retention of N-dodecyl-2-pyrrolidone (DDP) in formulations stored in various packaging materials, HPLC; assay type: physicochemical
Experimental: A material substantially lacking absorptive and adsorptive properties for a 5-(R1)-N-(R2)-2-pyrrolidone. A material substantially lacking absorptive and adsorptive properties for a 5-(R1)-N-(R2)-2-pyrrolidone is determined by packaging a 5-(R1)-N-(R2)-2-pyrrolidone-containing formulation in a bottle made from a test material, removing samples from the formulation at different storage times, and testing for the presence of the 2-pyrrolidone derivative. For example, presence of N-dodecyl-2-pyrrolidone (DDP) within a test sample is determined quantitatively using HPLC analysis as described in the examples provided infra.
The serotonergic formulation set forth in Table 1 was compounded in a glass bottle using techniques known to those skilled in the art. The formulation was tested for starting DDP concentration and then a volume was filled into different types of packaging materials as set forth in Table 2. The filled packages were then stored at the conditions indicated in Table 2, either room temperature or constant temperature ovens at 40° C. and 60° C. The thermal exposure testing was used to simulate the ability of container material to retain and deliver DDP in solution over a period of time or after prolonged increased thermal exposure. The tests were performed on duplicate containers to verify DDP concentration remaining in solution.
Concentration of DDP in each formulation was determined by chromatographic separation. The tests were performed on a WATERS ALLIANCE HPLC system with a CADENZA C18 column using a mobile phase consisting of 85% acetonitrile and 15% 1-octanesulfonic acid/water at room temperature. Absorbance was monitored at 220 nm, the known absorption wavelength of DDP. Linear range of detection for DDP was from 1.0 to 100.0 ppm. Retention time of DDP using this system is 8.3 minutes.
In further reference to Table 2, “Glass Vial” is a 1.5 mL clear borosilicate glass vial sealed with a TEFLON® lined septa and aluminum crimp seal (AGILENT HPLC vials part number 5182-0543). “White PETE” is a 60 mL cylindrical bottle made from polyethylene terephthalate (PETE) resin containing a white colorant, titanium dioxide (ALCON part number X04715). “Natural sPP” is a 4 mL oval bottle made from syndiotactic polypropylene (sPP) resin without colorant, i.e., natural (ALCON part number 281277). “Natural TEFLON®” is a 30 mL cylindrical bottle made from fluorinated ethylene propylene (TEFLON® FEP) polymer without colorant by NALGENE® (VWR part number 16071-008).
The serotonergic formulation set forth in Table 3 was compounded in the same manner as the Table 1 formulation. The test, the method of testing, and the packaging were as for the Table 1 formulation.
The formulation set forth in Table 5 was compounded in the same manner as the Table 1 formulation. The test, the method of testing, and the packaging were as for the Table 1 formulation.
The formulation set forth in Table 7 was compounded in the same manner as the Table 1 formulation. The test, the method of testing, and the packaging were as for the Table 1 formulation, except as indicated. “White LDPE” is an 8 mL cylindrical bottle made from low-density polyethylene (LDPE) with white colorant and is ALCON part number 277027. “Natural Polystyrene” is a 150 mL cylindrical bottle made of polystyrene polymer without colorant and is CORNING filter flask product 431153.

[2] = cited from earlier work

SMILES: CCCCCCCCCCCCN1CCCC1=O [DDP, N-dodecyl-2-pyrrolidone]
- DDP concentration in formulation ([1]; Table 1 formulation, Glass Vial 1.5 mL Fill, 1 day @ 40° C.): 9.5 ppm and 9.6 ppm
- DDP concentration in formulation ([1]; Table 1 formulation, Glass Vial 1.5 mL Fill, 1 day @ 60° C.): 10 ppm and 9.6 ppm
- DDP concentration in formulation ([1]; Table 1 formulation, Glass Vial 1.5 mL Fill, 1 day @ RT): 9.2 ppm and 9.3 ppm
- DDP concentration in formulation ([1]; Table 1 formulation, Glass Vial 1.5 mL Fill, 2 days @ 40° C.): 9.3, 9.3 ppm
- DDP concentration in formulation ([1]; Table 1 formulation, Glass Vial 1.5 mL Fill, 2 days @ 60° C.): 9.4 ppm and 9.1 ppm
- DDP concentration in formulation ([1]; Table 1 formulation, Glass Vial 1.5 mL Fill, 5 days @ 40° C.): 8.8 ppm and 9.1 ppm
- DDP concentration in formulation ([1]; Table 1 formulation, Glass Vial 1.5 mL Fill, 5 days @ 60° C.): 8.9 ppm and 8.6 ppm
- DDP concentration in formulation ([1]; Table 1 formulation, Glass Vial 1.5 mL Fill, 6 days @ RT): 9.0, 9.0 ppm
- DDP concentration in formulation ([1]; Table 1 formulation, Natural TEFLON 10 mL Fill, 2 days @ 60° C.): 8.4 ppm
- DDP concentration in formulation ([1]; Table 1 formulation, Natural TEFLON 10 mL Fill, 5 days @ 60° C.): 7.8 ppm
- DDP concentration in formulation ([1]; Table 1 formulation, Natural sPP 4 mL Fill, 1 day @ 40° C.): 3.3 ppm and 3.4 ppm
- DDP concentration in formulation ([1]; Table 1 formulation, Natural sPP 4 mL Fill, 1 day @ 60° C.): 1.3, 1.3 ppm
- DDP concentration in formulation ([1]; Table 1 formulation, Natural sPP 4 mL Fill, 1 day @ RT): 6.1 ppm and 6.6 ppm
- DDP concentration in formulation ([1]; Table 1 formulation, Natural sPP 4 mL Fill, 2 days @ 40° C.): 1.6 ppm and 1.7 ppm
- DDP concentration in formulation ([1]; Table 1 formulation, Natural sPP 4 mL Fill, 2 days @ 60° C.): 1.2 ppm and 1.3 ppm
- DDP concentration in formulation ([1]; Table 1 formulation, Natural sPP 4 mL Fill, 6 days @ RT): 4.0 ppm and 3.9 ppm
- DDP concentration in formulation ([1]; Table 1 formulation, Start, before filling into packaging): 11,11 ppm and 11, 11 ppm
- DDP concentration in formulation ([1]; Table 1 formulation, White PETE 10 mL Fill, 1 day @ 40° C.): 9.6 ppm and 9.3 ppm
- DDP concentration in formulation ([1]; Table 1 formulation, White PETE 10 mL Fill, 1 day @ 60° C.): 8.1 ppm and 8.3 ppm
- DDP concentration in formulation ([1]; Table 1 formulation, White PETE 10 mL Fill, 1 day @ RT): 9.8 ppm and 10 ppm
- DDP concentration in formulation ([1]; Table 1 formulation, White PETE 10 mL Fill, 2 days @ 40° C.): 8.9 ppm and 9.4 ppm
- DDP concentration in formulation ([1]; Table 1 formulation, White PETE 10 mL Fill, 2 days @ 60° C.): 7.4 ppm and 7.5 ppm
- DDP concentration in formulation ([1]; Table 1 formulation, White PETE 10 mL Fill, 5 days @ 40° C.): 8.8 ppm and 9.3 ppm
- DDP concentration in formulation ([1]; Table 1 formulation, White PETE 10 mL Fill, 5 days @ 60° C.): 6.1 ppm and 6.4 ppm
- DDP concentration in formulation ([1]; Table 1 formulation, White PETE 10 mL Fill, 6 days @ RT): 9.1 ppm and 9.0 ppm
- DDP concentration after thermal exposure (in words) ([1]; Table 1 formulation, sPP container, Tests 1, 2, and 3): drops significantly
- DDP concentration in formulation ([1]; Table 3 formulation, Glass Vial 1.5 mL Fill, 1 day @ 40° C.): 20, 20 ppm
- DDP concentration in formulation ([1]; Table 3 formulation, Glass Vial 1.5 mL Fill, 1 day @ 60° C.): 20, 20 ppm
- DDP concentration in formulation ([1]; Table 3 formulation, Glass Vial 1.5 mL Fill, 1 day @ RT): 20, 20 ppm
- DDP concentration in formulation ([1]; Table 3 formulation, Glass Vial 1.5 mL Fill, 2 days @ 40° C.): 19 ppm and 21 ppm
- DDP concentration in formulation ([1]; Table 3 formulation, Glass Vial 1.5 mL Fill, 2 days @ 60° C.): 20 ppm and 19 ppm
- DDP concentration in formulation ([1]; Table 3 formulation, Glass Vial 1.5 mL Fill, 5 days @ 40° C.): 20, 20 ppm
- DDP concentration in formulation ([1]; Table 3 formulation, Glass Vial 1.5 mL Fill, 5 days @ 60° C.): 19, 19 ppm
- DDP concentration in formulation ([1]; Table 3 formulation, Glass Vial 1.5 mL Fill, 6 days @ RT): 20, 20 ppm
- DDP concentration in formulation ([1]; Table 3 formulation, Natural TEFLON 10 mL Fill, 2 days @ 60° C.): 19 ppm
- DDP concentration in formulation ([1]; Table 3 formulation, Natural TEFLON 10 mL Fill, 5 days @ 60° C.): 19 ppm
- DDP concentration in formulation ([1]; Table 3 formulation, Natural sPP 4 mL Fill, 1 day @ 40° C.): 13, 13 ppm
- DDP concentration in formulation ([1]; Table 3 formulation, Natural sPP 4 mL Fill, 1 day @ 60° C.): 7.0, 7.0 ppm
- DDP concentration in formulation ([1]; Table 3 formulation, Natural sPP 4 mL Fill, 1 day @ RT): 18, 18 ppm
- DDP concentration in formulation ([1]; Table 3 formulation, Natural sPP 4 mL Fill, 2 days @ 40° C.): 10, 10 ppm
- DDP concentration in formulation ([1]; Table 3 formulation, Natural sPP 4 mL Fill, 2 days @ 60° C.): 3.4 ppm and 3.2 ppm
- DDP concentration in formulation ([1]; Table 3 formulation, Natural sPP 4 mL Fill, 5 days @ 40° C.): 6.1 ppm and 6.2 ppm
- DDP concentration in formulation ([1]; Table 3 formulation, Natural sPP 4 mL Fill, 6 days @ RT): 15, 15 ppm
- DDP concentration in formulation ([1]; Table 3 formulation, Start, before filling into packaging): 20, 20 ppm
- DDP concentration in formulation ([1]; Table 3 formulation, White PETE 10 mL Fill, 1 day @ 40° C.): 20, 20 ppm
- DDP concentration in formulation ([1]; Table 3 formulation, White PETE 10 mL Fill, 1 day @ 60° C.): 19 ppm and 20 ppm
- DDP concentration in formulation ([1]; Table 3 formulation, White PETE 10 mL Fill, 1 day @ RT): 21 ppm and 20 ppm
- DDP concentration in formulation ([1]; Table 3 formulation, White PETE 10 mL Fill, 2 days @ 40° C.): 20 ppm and 19 ppm
- DDP concentration in formulation ([1]; Table 3 formulation, White PETE 10 mL Fill, 2 days @ 60° C.): 18 ppm and 19 ppm
- DDP concentration in formulation ([1]; Table 3 formulation, White PETE 10 mL Fill, 5 days @ 40° C.): 20, 20 ppm
- DDP concentration in formulation ([1]; Table 3 formulation, White PETE 10 mL Fill, 5 days @ 60° C.): 17 ppm and 18 ppm
- DDP concentration in formulation ([1]; Table 3 formulation, White PETE 10 mL Fill, 6 days @ RT): 19 ppm and 20 ppm
- available DDP in the contained solution (in words) ([1]; Table 3 formulation, sPP packaging relative to Glass Vial, PETE, and TEFLON, Tests 4, 5, and 6): significant reduction
- DDP concentration in formulation ([1]; Table 5 formulation, Glass Vial 1.5 mL Fill, 1 day @ 40° C.): 9.0 ppm and 8.9 ppm
- DDP concentration in formulation ([1]; Table 5 formulation, Glass Vial 1.5 mL Fill, 1 day @ RT): 8.7 ppm and 8.6 ppm
- DDP concentration in formulation ([1]; Table 5 formulation, Glass Vial 1.5 mL Fill, 2 days @ 40° C.): 8.6 ppm and 8.2 ppm
- DDP concentration in formulation ([1]; Table 5 formulation, Glass Vial 1.5 mL Fill, 6 days @ RT): 8.4 ppm and 8.2 ppm
- DDP concentration in formulation ([1]; Table 5 formulation, Natural sPP 4 mL Fill, 1 day @ 40° C.): 0.3, 0.3 ppm
- DDP concentration in formulation ([1]; Table 5 formulation, Natural sPP 4 mL Fill, 1 day @ RT): 1.1, 1.1 ppm
- DDP concentration in formulation ([1]; Table 5 formulation, Start, before filling into packaging): 8.0, 8.0 ppm
- DDP concentration in formulation ([1]; Table 5 formulation, White PETE 10 mL Fill, 1 day @ 40° C.): 5.5 ppm and 5.0 ppm
- DDP concentration in formulation ([1]; Table 5 formulation, White PETE 10 mL Fill, 1 day @ RT): 6.3 ppm and 6.4 ppm
- DDP concentration in formulation ([1]; Table 5 formulation, White PETE 10 mL Fill, 2 days @ 40° C.): 4.6 ppm and 4.5 ppm
- DDP concentration in formulation ([1]; Table 5 formulation, White PETE 10 mL Fill, 6 days @ RT): 6.5 ppm and 6.4 ppm
- available DDP in the contained solution (in words) ([1]; Table 5 formulation, sPP packaging relative to Glass Vial and PETE, Tests 7, 8, and 9): significant reduction
- retaining DDP in the formulation (in words) ([1]; Table 7 formulation, Natural Polystyrene container, Tests 10, 11, and 12): essentially equivalent to the PETE container
- loss of DDP from the formulation (in words) ([1]; Table 7 formulation, White LDPE container, Tests 10, 11, and 12): even more severe than the sPP container
- loss of DDP from the formulation (in words) ([1]; Table 7 formulation, sPP container, Tests 10, 11, and 12): much greater than that of the Glass Vial or PETE containers
- solubility in water [2]: up to 0.002%

SMILES: CCCCCCCCN1CCCC1=O [N-octyl-2-pyrrolidone]
- solubility in water [2]: up to 0.124%
